Earlier results in patent publication US10946025B2, “Compounds” (Glaxo Group Limited, priority 2009, dated 2021).

Key:
neutrophil = conditions: background literature; for superoxide release: neutrophils
neutrophils = conditions: treatment of neutrophils; Thelen et al. 1994

## O=c1cc(N2CCOCC2)oc2c(-c3ccccc3)cccc12 [LY294002]
neutrophil
  neutrophil migration: block
  superoxide release: block

## COC[C@H]1OC(=O)c2coc3c2[C@@]1(C)C1=C(C3=O)[C@@H]2CCC(=O)[C@@]2(C)C[C@H]1OC(C)=O [wortmannin]
neutrophils
  fMLP-induced respiratory burst response: prevents
neutrophil
  neutrophil migration: block
  superoxide release: block
